The structures appear in SMILES notation.

The target of this assay is T1, human CaSR (Homo sapiens, UniProt P41180).
T1 construct: expressed in transfected cells; host or cells: 293E cells (EBNA1-expressing HEK293, ATCC No. CRL-10852), transient transfection of hCaSR/pcDNA3.1
T1 sequence (P41180 20-1078): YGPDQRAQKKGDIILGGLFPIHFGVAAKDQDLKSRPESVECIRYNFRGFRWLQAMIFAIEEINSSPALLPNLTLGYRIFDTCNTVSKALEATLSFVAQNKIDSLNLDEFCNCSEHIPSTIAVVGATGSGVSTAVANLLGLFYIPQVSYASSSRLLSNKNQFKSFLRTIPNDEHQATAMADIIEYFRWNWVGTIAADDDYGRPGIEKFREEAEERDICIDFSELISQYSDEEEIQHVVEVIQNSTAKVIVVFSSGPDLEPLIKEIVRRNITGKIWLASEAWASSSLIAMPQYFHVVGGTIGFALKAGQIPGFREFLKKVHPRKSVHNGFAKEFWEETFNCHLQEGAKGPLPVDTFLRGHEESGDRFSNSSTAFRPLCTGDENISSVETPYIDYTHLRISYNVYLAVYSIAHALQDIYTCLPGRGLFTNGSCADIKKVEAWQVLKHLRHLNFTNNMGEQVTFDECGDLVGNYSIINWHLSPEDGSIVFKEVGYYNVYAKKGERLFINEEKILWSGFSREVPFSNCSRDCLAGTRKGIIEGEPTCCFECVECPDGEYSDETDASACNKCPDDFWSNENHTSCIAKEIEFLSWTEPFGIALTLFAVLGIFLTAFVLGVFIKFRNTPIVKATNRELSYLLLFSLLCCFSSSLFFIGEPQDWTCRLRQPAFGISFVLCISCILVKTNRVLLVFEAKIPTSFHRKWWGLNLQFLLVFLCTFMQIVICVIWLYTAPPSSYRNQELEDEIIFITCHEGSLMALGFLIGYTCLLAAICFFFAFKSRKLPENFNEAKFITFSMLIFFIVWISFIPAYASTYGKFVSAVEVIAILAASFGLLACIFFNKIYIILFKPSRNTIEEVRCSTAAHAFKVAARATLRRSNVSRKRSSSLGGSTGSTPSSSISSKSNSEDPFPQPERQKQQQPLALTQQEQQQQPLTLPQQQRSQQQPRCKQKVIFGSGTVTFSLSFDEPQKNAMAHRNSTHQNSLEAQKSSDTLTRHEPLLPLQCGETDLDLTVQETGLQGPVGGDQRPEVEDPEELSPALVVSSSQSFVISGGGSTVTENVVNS
Put plainly: Assessment of CaSR agonistic activity (Ca2+ fluorescence, FLIPR, hCaSR-transfected 293E cells). The format is cell-based. The following applies: human CaSR-expressing 293E cells, 1.5 mM CaCl2 assay buffer, 3-minute change in fluorescence intensity. As to the method: CaSR gene was prepared according to the method described in Example 1 of WO07/55393. The resulting recombinant plasmid was used to generate human CaSR-expressing plasmid hCaSR/pcDNA3.1.
293E cells (EBNA1-expressing IIEK293 cells, ATCC No. CRL-10852) were cultured in DMEM ([…] Glucose-containing Dulbecco's modified Eagle medium, Nacalai Tesque) containing 10% bovine fetal serum in the presence of 250 μg/ml of G418. The cells were seeded on a 10 cm-diameter petri dish at 1.8×10^6 cells/15 ml, and left to stand in a CO2 incubator (5% CO2, 37° C.) for 24 hours. Thereafter, human CaSR expression plasmid hCaSR/pcDNA3.1 was transfected with transfection reagent Mirus Trans IT 293 (Takara Bio). Following static culture in a CO2 incubator for 24 hours, the cells were harvested with 10% bovine fetal serum-containing DMEM and seeded on a poly-D-lysine coat 384 well plate (Falcon) at 15,000 cells/well. Following static culture in a CO2 incubator for 24 hours, the medium was removed and the resultant was added with 50 μl/well of Ca^2+ fluorescent indicator Calcium 4 Assay Kit (Molecular Devices) dissolved in an assay buffer (146 mM NaCl, 5 mM KCl, 1 mM MgSO4, 1 mg/ml Glucose, 20 mM HEPES (PH 7.2), 1.5 mM CaCl2), and left to stand at 37° C. for an hour and then at room temperature for 30 minutes to allow intake of the indicator. The above-mentioned 384-well plate was transferred to FLIPR (Molecular Devices) and added with 12.5 μl/well of a compound dissolved in a 0.1% BSA-containing assay buffer to measure 3-minute change in the fluorescence intensity.
The difference between maximum and minimum fluorescence intensities before and after compound addition (RFU (Max−Min)) was determined by FLIPR automatic calculation. An activity rate was calculated where RFU (Max−Min) upon addition of a compound at a maximum concentration was defined 100% and RFU (Max−Min) upon addition of DMSO as a substitute for the compound at the same concentration was defined 0%. The rate was subjected to curve fitting using spreadsheet software Xfit to determine EC50 value, i.e., a compound concentration upon 50% activity rate.

`N[C@@H](CNC(=O)Nc1cc(Cl)cc(S(=O)(=O)O)c1O)C(=O)O` [Example 6, (2S)-2-amino-3-{[(5-chloro-2-hydroxy-3-sulfophenyl)carbamoyl]amino}propanoic acid] returned an EC50 of 3 nM.
